The subject of assay [1] is A1 and A3 ARs. Description: Inhibition of forskolin-stimulated cAMP accumulation.
For assay [2], the target named is T1, A2BAR (Homo sapiens, UniProt P29275).
T1 sequence (P29275 1-332): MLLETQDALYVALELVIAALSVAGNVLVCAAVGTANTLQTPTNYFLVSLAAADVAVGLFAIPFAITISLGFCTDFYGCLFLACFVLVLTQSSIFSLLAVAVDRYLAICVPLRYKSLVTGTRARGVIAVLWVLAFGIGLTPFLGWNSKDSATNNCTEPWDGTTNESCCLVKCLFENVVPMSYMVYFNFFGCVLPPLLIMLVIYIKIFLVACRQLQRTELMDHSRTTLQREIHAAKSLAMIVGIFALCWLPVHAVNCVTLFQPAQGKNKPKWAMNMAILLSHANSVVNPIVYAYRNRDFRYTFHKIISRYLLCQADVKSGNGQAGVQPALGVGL
The experiment in a line: Intracellular calcium mobilization in HEK293 cells overexpressing the A2BAR. The settings on record: for log (τ/KA) / τ: Calcium pathway; for τ: operational model, A2BAR-overexpressing HEK293; for ΔΔlog (τ/KA): Calcium versus cAMP reference pathway; for Bias: Calcium versus cAMP, bias ≫1 disfavors the pathway. In general terms: Calcium assays in cells follow changes in intracellular calcium, usually with a dye or a luminescent sensor.

Assay [3] has as its target T1, A2BAR. Description: ERK1/2 phosphorylation in T24 cells. The settings on record: for ERK1/2 stimulation: T24 cells; for Emax: T-24, read-out: Max effect ERK1/2 (% of effect of NECA).
For assay [4], the target named is T1, A2BAR. The experiment in a line: ERK1/2 phosphorylation in HEK293 cells. The conditions noted are these: for Emax: HEK293, read-out: Max effect ERK1/2 (% of effect of NECA).
Assay [5] concerns the target T1, A2BAR. The settings on record: for Emax: PC-3, read-out: Max effect cAMP accumulation. In general terms: cAMP levels reflect the balance of adenylyl cyclase and phosphodiesterase activity.
Assay [6] has as its target T1, A2BAR. The experiment in a line: cAMP accumulation in HEK293 cells overexpressing the A2BAR. The settings on record: for Emax: HEK293, read-out: Max effect cAMP (% of effect of NECA); for τ: operational model, A2BAR-overexpressing HEK293.
The target in assay [7] is T1, A2BAR. Description: ERK1/2 phosphorylation in HEK293 cells overexpressing the A2BAR. The settings on record: for log (τ/KA) / τ / Δlog (τ/Ka): ERK1/2 pathway; for τ: operational model, A2BAR-overexpressing HEK293; for Δlog (τ/Ka): relative to NECA; for ΔΔlog (τ/KA): ERK1/2 versus cAMP reference pathway; for Bias: ERK1/2 versus cAMP, bias ≫1 disfavors the pathway; for Emax: HEK293, read-out: Max effect ERK1/2 (% of effect of NECA).

For assay [8], the system named is A2BAR. The experiment in a line: cAMP accumulation in COS-7 cells endogenously expressing the A2BAR. The conditions noted are these: for Max effect cAMP accumulation: NECA = 100; for EC50: read-out: EC50 cAMP accumulation.
The target in assay [9] is T1, A2BAR. Description: cAMP accumulation in WM266 melanoma cells endogenously expressing the A2BAR. The settings on record: for Emax: WM266, read-out: Max effect cAMP accumulation.
The subject of assay [10] is mouse A2BAR. Description: β-Arrestin2 translocation in PathHunter CHO cells. The conditions noted are these: for ΔΔlog (τ/KA): β-Arrestin versus cAMP reference pathway; for Bias: β-Arrestin versus cAMP, bias ≫1 disfavors the pathway.
Assay [11] has as its target T2, mouse A2BAR (Mus musculus, UniProt Q60614).
T2 sequence (Q60614 1-332): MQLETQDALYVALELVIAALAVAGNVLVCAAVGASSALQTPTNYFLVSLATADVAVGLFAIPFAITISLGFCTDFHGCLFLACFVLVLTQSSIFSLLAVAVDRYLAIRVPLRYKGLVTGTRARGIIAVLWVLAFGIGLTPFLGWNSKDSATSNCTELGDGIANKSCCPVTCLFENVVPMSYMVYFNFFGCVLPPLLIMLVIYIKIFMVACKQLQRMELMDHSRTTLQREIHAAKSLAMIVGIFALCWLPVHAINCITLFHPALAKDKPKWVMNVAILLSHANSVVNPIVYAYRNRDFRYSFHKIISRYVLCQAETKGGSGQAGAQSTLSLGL
The experiment in a line: β-Arrestin2 translocation in PathHunter CHO cells. The conditions noted are these: for Emax: CHO, read-out: Max effect β-arrestin (% of effect of NECA); for log (τ/KA) / τ / Δlog (τ/Ka): β-Arrestin pathway; for τ: operational model, CHO mouse A2BAR; for Δlog (τ/Ka): relative to NECA.

The test system of assay [12] is MIN-6 mouse pancreatic β cells. The experiment in a line: Insulin release in MIN6 cells. Type of assay: cell-based. The settings on record: MIN-6 cells, 16.7 mM glucose, 1 h.
Assay [13] concerns the target T1, A2BAR. Description: cAMP accumulation in HEK293 cells endogenously expressing the A2BAR. The conditions noted are these: for Emax: HEK293, read-out: Max effect cAMP (% of effect of NECA).
Assay [14] has as its target T1, A2BAR. The experiment in a line: Intracellular calcium mobilization in HEK293 cells. The settings on record: HEK293, read-out: Max effect Calcium (% of effect of NECA).
Assay [15] has as its target T1, A2BAR. The experiment in a line: cAMP accumulation in 1321N1 astrocytoma cells endogenously expressing the A2BAR. The settings on record: for Emax: 1321-N1, read-out: Max effect cAMP accumulation.
Assay [16] addresses T1, A2BAR. The experiment in a line: Intracellular calcium mobilization in T24 cells. The settings on record: T-24, read-out: Max effect Calcium (% of effect of NECA).
Assay [17] concerns the target T1, A2BAR. Description: cAMP accumulation in T24 cells endogenously expressing the A2BAR. The settings on record: for Emax: T-24, read-out: Max effect cAMP (% of effect of NECA).

Like-named read-outs stand apart in the source and are kept apart here.

Consider `OC[C@H]1O[C@@H](n2cnc3c(NC4CCCC4)ncnc32)[C@H](O)[C@@H]1O` [CPA, N^6-cyclopentyladenosine], for which the “inhibition of forskolin-stimulated cAMP accumulation” value in assay [1] was “inactive”.

By EC50 is commonly meant the concentration that produces a half-maximal response. As usually defined, the Kd is the free concentration of one partner at which half of the binding sites on the other are occupied at equilibrium, for simple one-to-one binding. On to `N#Cc1c(N)nc(SCC(N)=O)c(C#N)c1-c1ccc(OCC2CC2)cc1` [BAY, 2-[[6-amino-3,5-dicyano-4-[4-(cyclopropylmethoxy)phenyl]-2-pyridinyl]thio]acetamide], for which the concentration for a half-maximal effect (EC50) in assay [2] worked out at 1100 ± 390 nM; in assay [4], 68.8 ± 4.7 nM; in assay [5], 45.3 ± 5.9 nM; in assay [6], 6.14 ± 1.61 nM; in assay [7], 28.9 ± 4.1 nM; in assay [8], 7.9 ± 1.2 nM. Moreover, the concentration for a half-maximal effect (EC50) in assay [11] was determined as 5620 ± 1240 nM; in [13] it was 296 ± 146 nM; in assay [15], 113 ± 17 nM; in assay [17] (EC50 cAMP accumulation, T24 cells, 5 nM A2BAR siRNA), 102 ± 17 nM; in assay [17] (EC50 cAMP accumulation, T24 cells, 50 nM A2BAR siRNA), 127 ± 31 nM; in [17] (EC50 cAMP accumulation, T24 cells, 500 nM A2BAR siRNA), 93 ± 19 nM. Moreover, the concentration for a half-maximal effect (EC50) turned out to be 98 ± 22 nM in [17] (EC50 cAMP accumulation, T24 cells, absence of A2BAR siRNA) and 43 ± 17.7 nM in assay [17] (EC50 cAMP, T24 cells). Moreover, the Kd was found to be 1670 nM in [2], 705 nM in [6], 59.5 nM in assay [7] and 12300 nM in assay [11]. For the same compound, the “log (τ/KA)” value in assay [2] came out at 4.66 ± 0.35; in assay [6] (cAMP pathway) it was 8.15 ± 0.38; in [7] it was 7.02 ± 0.44; in assay [11] it was 4.30 ± 0.17. Also, the τ is listed as 0.08 in assay [2], 100 in assay [6] (cAMP pathway), 0.62 in [7] and 0.25 in [11]. In addition, the “ΔΔlog (τ/KA)” value was 4.22 in assay [2], -0.66 in assay [7] and 2.16 in [10]. Also, the Bias in [2] is recorded as 16600; in assay [7], 0.22; in [10], 145. Further, in [3], the “ERK1/2 stimulation” value is reported as “did not produce any stimulation”. Also, the Emax in assay [3] was -9.4 ± 3.8%; in assay [4], 38.3 ± 5.9%; in assay [5], 72.6 ± 5.1%; in assay [6], 102 ± 1%; in assay [7], 38.4 ± 3.3%; in [9], 9.8 ± 1.7%. In addition, the Emax in assay [11] is 26.6 ± 3%; in assay [13], 73 ± 12.1%; in assay [14], -2.4 ± 1.7%; in assay [15], 52.6 ± 3.1%; in [16], 2.3 ± 1.5%; in assay [17], 62.9 ± 9.6%. The “Δlog (τ/Ka)” value is listed as 0.73 ± 0.04 in [6] (cAMP pathway, relative to NECA); 1.39 ± 0.17 in assay [7]; -1.43 ± 0.09 in assay [11]. Moreover, in assay [8], the “Max effect cAMP accumulation” value came to 98.3±3.7%. Also, the “Glucose stimulated insulin secretion” value in assay [12] is reported as “induced insulin secretion”. Besides, the “τ value (operational model), cAMP accumulation” value in [13] (HEK293 cells, siRNA silencing / overexpression methods) turned out to be 1.54; in assay [17] (T24 cells, siRNA silencing / overexpression methods) it was 1.19. Also, the “maximum agonist effect, cAMP accumulation (NECA as 100%)” value in assay [17] (T24 cells, 5 nM A2BAR siRNA) was determined as 54 ± 4%; in assay [17] (T24 cells, 50 nM A2BAR siRNA), 48 ± 6%; in assay [17] (T24 cells, 500 nM A2BAR siRNA), 36 ± 3%; in assay [17] (T24 cells, absence of A2BAR siRNA), 68 ± 7%.

Consider `Nc1nc(OCCc2c[nH]c3cc(Br)ccc23)nc2c1ncn2[C@@H]1O[C@H](CO)[C@@H](O)[C@H]1O` [MRS3997, 2-(2-(6-bromo-indol-3-yl)ethyloxy)adenosine], for which the dissociation constant Kd in assay [2] turned out to be 7100 nM; in [6] it was 6700 nM; in assay [7], 362 nM; in [11] it was 18100 nM. The “log (τ/KA)” value in assay [2] amounted to 3.35 ± 0.44; in assay [6] (cAMP pathway), 6.83 ± 0.45; in assay [7], 6.08 ± 0.89; in assay [11], 4.17 ± 0.23. Moreover, the τ in [2] turned out to be 0.02; in assay [6] (cAMP pathway) it was 45.1; in assay [7], 0.44; in [11], 0.27. Further, the “ΔΔlog (τ/KA)” value was found to be 4.06 in [2], 0.14 in assay [7] and 2.15 in [10]. Besides, the Bias amounted to 11500 in assay [2], 1.38 in [7] and 141 in assay [10]. Also, the “ERK1/2 stimulation” value in assay [3] is on record as “did not produce any stimulation”. Further, the Emax in [3] is -8.2 ± 7.6%; in [4], 42.3 ± 9.4%; in assay [5], 98.2 ± 7.7%; in [6], 102 ± 6.6%; in assay [7], 29.7 ± 2.6%; in assay [9], 96.2 ± 1.8%. The Emax is 28.1 ± 3.5% in assay [11]; 96.2 ± 24.3% in assay [13]; 1.6 ± 2.2% in assay [14]; 98.4 ± 3.1% in assay [15]; -2.7 ± 3.2% in [16]; 94.9 ± 2.2% in assay [17]. Moreover, the EC50 in assay [4] amounted to 166 ± 32 nM; in [5], 480 ± 32 nM; in [6], 62.9 ± 7.6 nM; in [7] it was 203 ± 48 nM; in [8], 226 ± 32 nM; in assay [9] it was 1870 ± 320 nM. Besides, the EC50 in [13] came out at 1020 ± 250 nM; in [15], 1260 ± 180 nM; in assay [17], 745 ± 225 nM. For the same compound, the “Δlog (τ/Ka)” value in assay [7] is 0.45 ± 0.03; in [11], -1.56 ± 0.18. In addition, the “Max effect cAMP accumulation” value in assay [8] is listed as 100±6%.

Regarding `CCCn1c(=O)[nH]c2nc(-c3ccc(S(=O)(=O)N4CCN(c5ccc(Cl)cc5)CC4)cc3)[nH]c2c1=O` [PSB603], in assay [12], the “Glucose stimulated insulin secretion” value is “induced insulin secretion”.

For `CNC(=O)[C@H]1O[C@@H](n2cnc3c(NCc4cccc(I)c4)nc(Cl)nc32)[C@H](O)[C@@H]1O` [Cl-IB-MECA], in assay [1], the “inhibition of forskolin-stimulated cAMP accumulation” value is “inactive”.
